Reference: patent US20140088187A1, “ANDROGEN RECEPTOR INHIBITORS AND METHODS OF USE THEREOF” (BETH ISRAEL DEACONESS MEDICAL CENTER, priority 2010, published 2014)

Columns and labels:
[1] = target: T1, wild-type AR in PC3-AR cells (Homo sapiens, UniProt P10275); test: AR protein levels and degradation (cycloheximide) in PC3-AR cells; type: cell-based
T1 construct: expressed in transfected cells
T1 sequence (P10275 1-920): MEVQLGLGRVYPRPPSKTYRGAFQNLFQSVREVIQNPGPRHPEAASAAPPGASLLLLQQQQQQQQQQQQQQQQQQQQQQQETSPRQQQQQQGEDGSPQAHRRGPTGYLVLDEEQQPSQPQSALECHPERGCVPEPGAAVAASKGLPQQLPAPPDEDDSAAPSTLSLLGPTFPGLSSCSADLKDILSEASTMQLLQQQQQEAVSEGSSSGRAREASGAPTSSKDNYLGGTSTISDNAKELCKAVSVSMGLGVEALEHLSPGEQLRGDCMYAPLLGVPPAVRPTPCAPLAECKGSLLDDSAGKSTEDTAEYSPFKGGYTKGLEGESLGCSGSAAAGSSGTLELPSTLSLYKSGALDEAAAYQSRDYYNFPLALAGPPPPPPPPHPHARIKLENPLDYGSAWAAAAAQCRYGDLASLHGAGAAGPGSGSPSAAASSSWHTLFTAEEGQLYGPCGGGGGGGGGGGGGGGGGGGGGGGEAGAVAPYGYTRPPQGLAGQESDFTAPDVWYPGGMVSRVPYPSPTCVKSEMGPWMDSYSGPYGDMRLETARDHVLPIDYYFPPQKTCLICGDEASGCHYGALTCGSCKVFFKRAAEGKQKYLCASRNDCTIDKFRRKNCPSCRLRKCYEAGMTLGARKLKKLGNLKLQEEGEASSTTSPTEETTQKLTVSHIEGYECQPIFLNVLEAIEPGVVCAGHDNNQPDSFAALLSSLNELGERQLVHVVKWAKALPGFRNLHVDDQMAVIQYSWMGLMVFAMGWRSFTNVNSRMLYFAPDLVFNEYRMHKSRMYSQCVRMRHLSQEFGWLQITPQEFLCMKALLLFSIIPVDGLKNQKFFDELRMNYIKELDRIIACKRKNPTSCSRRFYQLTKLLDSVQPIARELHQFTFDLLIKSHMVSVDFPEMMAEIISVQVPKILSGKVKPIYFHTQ
Procedure: As LNCaP and C4-2 cells express the T877A mutant AR, we next examined PC3-AR cells expressing wildtype AR. As observed in C4-2 cells, A89 caused a decrease in AR protein levels (FIG. 10d). To further validate that this was due to increased AR protein degradation, we pretreated these cells with A89 for 2 hours and then blocked new protein synthesis with cycloheximide (CHX). […] We finally examined VCaP cells.

[2] = target: T2, AR ΔH12 (M886X variant AR) (Homo sapiens, UniProt P10275); test: Mifepristone-stimulated VP16-NCoRc recruitment reporter assay in COS7 cells, AR ΔH12; type: cell-based
T2 construct: expressed in transfected cells; host or cells: COS7
T2 sequence (P10275 1-886 limits assumed): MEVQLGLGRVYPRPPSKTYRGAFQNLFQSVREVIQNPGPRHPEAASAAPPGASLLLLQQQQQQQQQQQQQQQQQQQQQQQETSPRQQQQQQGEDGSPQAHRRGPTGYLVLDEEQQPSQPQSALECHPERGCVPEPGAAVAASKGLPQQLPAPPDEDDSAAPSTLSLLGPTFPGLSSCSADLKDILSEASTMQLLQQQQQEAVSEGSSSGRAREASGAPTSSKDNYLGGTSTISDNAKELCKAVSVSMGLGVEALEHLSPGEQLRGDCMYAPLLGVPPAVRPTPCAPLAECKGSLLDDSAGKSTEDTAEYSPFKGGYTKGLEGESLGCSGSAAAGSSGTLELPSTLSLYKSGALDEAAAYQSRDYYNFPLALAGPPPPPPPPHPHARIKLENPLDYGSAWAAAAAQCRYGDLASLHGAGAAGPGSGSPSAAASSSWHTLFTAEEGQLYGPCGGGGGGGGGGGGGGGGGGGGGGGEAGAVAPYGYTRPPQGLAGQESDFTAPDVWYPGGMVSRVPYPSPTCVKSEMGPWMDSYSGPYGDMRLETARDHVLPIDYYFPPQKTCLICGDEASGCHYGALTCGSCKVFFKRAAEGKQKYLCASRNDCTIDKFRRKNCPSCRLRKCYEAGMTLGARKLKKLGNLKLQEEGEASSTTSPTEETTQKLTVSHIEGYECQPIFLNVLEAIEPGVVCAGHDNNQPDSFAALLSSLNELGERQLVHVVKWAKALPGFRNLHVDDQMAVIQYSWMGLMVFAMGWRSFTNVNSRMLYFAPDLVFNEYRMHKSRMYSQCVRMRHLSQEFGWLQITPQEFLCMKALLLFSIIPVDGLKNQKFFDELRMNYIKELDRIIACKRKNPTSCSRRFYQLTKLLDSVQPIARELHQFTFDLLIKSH
Source text: The ERα antagonist fulvestrant (Faslodex) represents a novel class of estrogen receptor downregulators that appear to mediate ERα degradation by specifically repositioning helix 12. To assess the role of helix 12 in chemotype A-mediated AR degradation, we first determined if helix 12 is required for A89 binding. As this helix is required for AR agonist activity, we could not directly measure competitive antagonist activity on a truncated AR lacking helix 12.

time within which AR protein decreased ([1]; A89 10 μM, PC3-AR cells): ≤ 4 h
time within which total AR protein dramatically decreased after cycloheximide (CHX) ([1]; A89 treated PC3-AR cells plus CHX): ≤ 1 h
AR protein levels ([1]; PC3-AR cells expressing wildtype AR): decrease
AR protein levels after cycloheximide ([1]; PC3-AR cells pretreated with A89 for 2 hours, then 1 hour CHX, versus CHX alone): declined markedly
mifepristone-mediated VP16-NCoRc recruitment ([2]; A89 50 μM with Mif 100 nM): suppressed
VP16-NCoRc recruitment (interaction with AR) ([2]; Mif 100 nM, A89 50 μM, 24 hours): did not stimulate
SMILES: CCOc1cc(F)c(S(=O)(=O)NCc2ccc3c(c2)OCO3)cc1F [Compound A89, N-(1,3-benzodioxol-5-ylmethyl)-4-ethoxy-2,5-difluorobenzenesulfonamide]
